Patent US11092608B2, “Methods of identifying modulators of CASTOR1-GATOR2 interaction and use of same to modulate mTORC1” (Whitehead Institute for Biomedical Research, priority 2015, dated 2021)
Values joined by “and” are separate entries in the source; they are usually repeats but may differ in a detail not shown here. Equal entries are not always repeated.

Tests used:
[1] = target: T1, CASTOR1 homodimer (Homo sapiens, UniProt Q8WTX7); assay: Arginine binding assay (equilibrium / competition binding with [3H]-labeled amino acids); conditions: for binding of radiolabeled amino acid to CASTOR1 homodimer: immunopurified from HEK-293T cells, competed by excess nonradiolabelled arginine
T1 construct: made in house; host or cells: HEK-293T (transfected, pRK5-based cDNA plasmids; anti-FLAG immunoprecipitates)
T1 sequence (Q8WTX7 1-329) 1: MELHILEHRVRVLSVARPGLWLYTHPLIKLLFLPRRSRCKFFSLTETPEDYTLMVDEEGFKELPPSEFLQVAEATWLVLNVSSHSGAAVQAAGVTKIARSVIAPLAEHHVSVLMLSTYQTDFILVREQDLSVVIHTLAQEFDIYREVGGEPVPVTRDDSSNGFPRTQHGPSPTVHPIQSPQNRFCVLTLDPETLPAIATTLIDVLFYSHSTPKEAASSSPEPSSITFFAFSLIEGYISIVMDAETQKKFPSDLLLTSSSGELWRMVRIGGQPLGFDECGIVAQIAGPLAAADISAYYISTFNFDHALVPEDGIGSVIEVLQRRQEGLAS
T1 sequence (Q8WTX7 1-329) 2: T1 sequence (Q8WTX7 1-329) 1
Method: (§1) Four million HEK-293T cells were plated in a 15 cm plate four days prior to the experiment. Forty-eight hours after plating, the cells were transfected via the polyethylenimine method (Boussif et al., 1995) with the pRK5-based cDNA expression plasmids indicated in the figures in the following amounts: 15 μg FLAG-Rap2A, 400 ng CASTOR1-FLAG or CASTOR2-FLAG with 1200 ng CASTOR1-HA or 1200 ng CASTOR2-HA, 400 ng CASTOR1 1280A-FLAG with 1200 ng CASTOR1 1280A-HA. The total amount of plasmid DNA in each transfection was normalized to 15 μg with empty pRK5. Forty-eight hours after transfection cells were lysed as previously described (Wolfson et al., 2015). If multiple samples of the same type were represented in the experiment, the cell lysates were combined, mixed, and evenly distributed amongst the relevant tubes.
(§2) Anti-FLAG immunoprecipitates were prepared as previously described, with the exception that prior to incubation with lysates, the beads were blocked by rotating in 1 μg/μl bovine serum albumin (BSA) for 20 minutes at 4° C. and subsequently washed twice in lysis buffer. Thirty μl of the 50% slurry of beads in lysis buffer was added to each of the clarified cell lysates and incubated for 90 minutes.
(§3) For the binding assays, all immunoprecipitates were washed in pairs once with Triton wash buffer, three times with Triton lysis buffer supplemented with 500 mM NaCl, and three times with cytosolic buffer (0.1% Triton, 40 mM HEPES pH 7.4, 10 mM NaCl, 150 mM KCl, 2.5 mM MgCl2). All the liquid was subsequently aspirated and a 15 μl aliquot of proteins bound to the beads was incubated for one hour on ice in cytosolic buffer with the appropriate amount of [^3H]-labeled amino acids and cold amino acids. At the end of one hour, the beads were spun at 2,500 rpm for 25 seconds, aspirated, and rapidly washed three times with binding wash buffer (0.1% Triton, 40 mM HEPES pH 7.4, 150 mM NaCl). The beads were aspirated dry and resuspended in 85 μl of binding wash buffer. Three 10 μl aliquots of this mix were separately quantified using a TriCarb scintillation counter (PerkinElmer).
(§4) For each sample, an immunoprecipitation was performed in parallel. After washing four times as previously described, the beads were aspirated dry and resuspended in 50 μl FLAG elution buffer (Triton wash buffer supplemented with 300 mM NaCl and 1 mg/ml FLAG peptide), and incubated with rotation for 1 hour at 4° C. The eluent was subsequently resuspended in sample buffer. Equal volumes of the eluent were resolved by 10% SDS-PAGE and analyzed with Coomassie Blue stain. Kd values were calculated as previously described (Wolfson et al., 2015).

[2] = target: T2, CASTOR1-CASTOR2 heterodimer (Homo sapiens, UniProt Q8WTX7); assay: as above
T2 construct: made in house; host or cells: HEK-293T (transfected, pRK5-based cDNA plasmids; anti-FLAG immunoprecipitates)
T2 sequence (Q8WTX7 1-329): T1 sequence (Q8WTX7 1-329) 1
T2 sequence (A6NHX0 1-329 partner): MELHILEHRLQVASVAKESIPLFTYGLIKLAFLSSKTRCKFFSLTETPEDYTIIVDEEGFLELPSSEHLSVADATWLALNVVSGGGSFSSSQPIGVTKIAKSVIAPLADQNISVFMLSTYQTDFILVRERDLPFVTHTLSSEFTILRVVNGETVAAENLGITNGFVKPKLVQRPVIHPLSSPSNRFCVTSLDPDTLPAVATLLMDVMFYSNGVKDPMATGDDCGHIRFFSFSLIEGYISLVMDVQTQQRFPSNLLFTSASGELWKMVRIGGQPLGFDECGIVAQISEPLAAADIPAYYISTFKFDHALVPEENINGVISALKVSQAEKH
Method: as §1, §2, §3, §4

[3] = target: T3, CASTOR2 homodimer (Homo sapiens, UniProt A6NHX0); assay: Arginine binding assay (equilibrium binding with [3H]-labeled arginine); conditions: immunopurified from HEK-293T cells
T3 construct: made in house; host or cells: HEK-293T (transfected, pRK5-based cDNA plasmids; anti-FLAG immunoprecipitates)
T3 sequence (A6NHX0 1-329) 1: T2 sequence (A6NHX0 1-329 partner)
T3 sequence (A6NHX0 1-329) 2: T2 sequence (A6NHX0 1-329 partner)
Method: as §1, with “If multiple samples of the same type were represented in the experiment, the cell lysates were combined, mixed, and evenly distributed amongst the relevant tubes.” left out
For the binding assays, all immunoprecipitates were washed in pairs once with Triton wash buffer, three times with Triton lysis buffer supplemented with 500 mM NaCl, and three times with cytosolic buffer (0.1% Triton, 40 mM HEPES pH 7.4, 10 mM NaCl, 150 mM KCl, 2.5 mM MgCl2). […] Three 10 μl aliquots of this mix were separately quantified using a TriCarb scintillation counter (PerkinElmer).
For each sample, an immunoprecipitation was performed in parallel. […] Equal volumes of the eluent were resolved by 10% SDS-PAGE and analyzed with Coomassie Blue stain. Kd values were calculated as previously described (Wolfson et al., 2015).

[4] = target: T4, interaction of GATOR2 with CASTOR1 homodimer (Homo sapiens, UniProt Q8WTX7); assay: In vitro CASTOR-GATOR2 dissociation assay; format: biochemical
T4 construct: made in house; host or cells: HEK-293T co-transfected with the CASTOR cDNAs; GATOR2 is the cells' endogenous complex, co-immunoprecipitated on anti-HA beads
T4 sequence (Q8WTX7 1-329) 1: T1 sequence (Q8WTX7 1-329) 1
T4 sequence (Q8WTX7 1-329) 2: T1 sequence (Q8WTX7 1-329) 1
Method: (§5) HEK-293T cells co-transfected with 40 ng CASTOR1-HA and either 80 ng CASTOR1-FLAG (CASTOR1 homodimer) or 80 ng CASTOR2-FLAG (CASTOR1-CASTOR2 heterodimer) were starved for all amino acids for 50 minutes, lysed and subjected to anti-HA immunoprecipitation as described previously. The CASTOR-GATOR2 complexes immobilized on agarose beads were washed once in Triton wash buffer, three times in Triton wash buffer supplemented with 500 mM NaCl, and then incubated for 20 minutes in 1 mL of ice-cold Triton wash buffer supplemented with 500 mM NaCl and the indicated concentrations of individual amino acids. The amount of GATOR2 that remained bound to CASTOR complexes was assayed by SDS-PAGE and immunoblotting as previously described.

[5] = target: T5, interaction of GATOR2 with CASTOR1-CASTOR2 heterodimer (Homo sapiens, UniProt Q8WTX7); assay: In vitro CASTOR-GATOR2 dissociation assay; format: biochemical
T5 construct: made in house; host or cells: HEK-293T co-transfected with the CASTOR cDNAs; GATOR2 is the cells' endogenous complex, co-immunoprecipitated on anti-HA beads
T5 sequence (Q8WTX7 1-329): T1 sequence (Q8WTX7 1-329) 1
T5 sequence (A6NHX0 1-329 partner): T2 sequence (A6NHX0 1-329 partner)
Method: as §5

[6] = competition binding with increasing cold arginine, FLAG immunoprecipitates from HEK-293T cells
[7] = 400 μM arginine added to purified complexes

Structure (SMILES) | arginine binding to CASTOR1 homodimer purified from E. coli ([1]; bacterially produced protein) | Kd [1, 6] | binding of radiolabeled amino acid to CASTOR1 homodimer [1] | arginine binding to CASTOR1-CASTOR2 heterodimer purified from E. coli ([2]; bacterially produced protein) | Kd [2, 6] | amount of arginine bound by CASTOR1-CASTOR2 heterodimer relative to CASTOR1 homodimer ([2]; immunopurified from HEK-293T cells) | binding of tritiated arginine to CASTOR2 homodimer [3] | dissociation of GATOR2 from CASTOR1 homodimer [4, 7] | EC50 ([4]; purified complexes from amino acid starved HEK-293T cells, CASTOR1 homodimer, read-out: arginine concentration for half-maximal disruption of GATOR2 interaction) [µM] | dissociation of GATOR2 from CASTOR1-CASTOR2 heterodimer [5, 7] | EC50 ([5]; purified complexes from amino acid starved HEK-293T cells, CASTOR1-CASTOR2 heterodimer, read-out: arginine concentration for half-maximal disruption of GATOR2 interaction) [µM]
N=C(N)NCCC[C@H](N)C(=O)O [arginine] | bound arginine to a comparable degree as the complexes prepared from human cells | ~30 µM and 34.8 µM | bound | bound arginine to a comparable degree as the complexes prepared from human cells | ~30 µM and 24.2 µM | roughly half as much arginine as the CASTOR1 homodimer | not | sufficient to dissociate GATOR2 | 20 to 40 | sufficient to dissociate GATOR2 | 20 to 40
CC(C)C[C@H](N)C(=O)O [leucine] | – | – | neither radiolabeled leucine nor lysine bound | – | – | – | – | – | – | – | –
NCCCC[C@H](N)C(=O)O [lysine] | – | – | neither radiolabeled leucine nor lysine bound | – | – | – | – | – | – | – | –
